In US10517889B2, “Modulators of SMAD7 expression” (Ionis Pharmaceuticals, Inc., priority 2017, dated 2019):
Strand notation (5' to 3'): a small letter for the sugar, then the base; units joined by * are phosphorothioate-linked, units joined directly phosphodiester-linked; [ ] holds rarer units or linkages, { } end groups; capitals alone tell only the bases. k = constrained ethyl (cEt); [5mC] = 5-methylcytosine; d = 2'-deoxy (DNA)

What follows are substances tested on human SMAD7 mRNA (assay: Antisense inhibition of human SMAD7 mRNA expression in Hep3B cells by 3-10-3 cEt gapmers, 10,000 nM, electroporation (Example 2)). Details: Hep3B cells, 10,000 nM antisense oligonucleotide, electroporation, approximately 24 hours, RT-PCR primer probe set RTS5062, relative to untreated control cells.
Assay type: cell-based
In short: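 Hep3B, 20,000 cells/well; electroporation, 10,000 nM ASO; ~24 h. Readout: SMAD7 mRNA by qRT-PCR (RTS5062), RIBOGREEN-normalised; % inhibition vs untreated.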

Compared with “800069 (antisense k[5mC]*kA*kT*dG*dG*d[5mC]*dG*dG*dA*dA*dG*dA*dT*kG*kG*kG) [compound 800069]”, “798927 (antisense k[5mC]*kA*kG*d[5mC]*dA*dA*dA*dG*dT*dA*dG*dT*dT*kT*kG*kA) [compound 798927]” is lower in “% Inhibition” value: 25% for the first, 0% for the second.

For “798909 (kA*k[5mC]*kG*d[5mC]*dG*dG*d[5mC]*dT*dA*d[5mC]*d[5mC]*dG*dG*k[5mC]*kT*kG; antisense) [compound 798909]”, the “% Inhibition” value was 42%.

Same assay, conditions: Hep3B cells, electroporation with 10,000 nM antisense oligonucleotide, approximately 24 hours, RTS5062, percent inhibition of SMAD7 mRNA relative to untreated control cells

Compared with “799625 (kA*kA*kT*dG*dA*dA*dA*dG*dT*dA*d[5mC]*dA*dA*kT*k[5mC]*kT; antisense) [compound 799625]”, “799584 (kT*kA*kT*d[5mC]*dA*dA*dG*dA*dA*dG*dA*d[5mC]*dA*kA*kA*k[5mC]; antisense) [compound 799584]” is higher in “% Inhibition” value: 31% for the first, 39% for the second.

Compared with “799293 (antisense k[5mC]*k[5mC]*kT*dT*dG*dA*dT*dG*d[5mC]*dT*dG*dA*dT*kT*kA*kT) [compound 799293]”, “799590 (k[5mC]*kT*kG*d[5mC]*dA*dG*dT*d[5mC]*dT*dT*d[5mC]*dT*dG*kA*kA*kG; antisense) [compound 799590]” is higher in “% Inhibition” value: 5% for the first, 9% for the second.

Compared with “799586 (kG*kA*kG*dG*dA*dG*dG*d[5mC]*dA*d[5mC]*dT*d[5mC]*dA*kG*kG*k[5mC]; antisense) [compound 799586]”, “799291 (antisense kG*k[5mC]*kT*dG*dA*dT*dT*dA*dT*dT*dA*dA*dT*kG*kG*kT) [compound 799291]” is lower in “% Inhibition” value: 50% for the first, 0% for the second.

Same assay, conditions: Hep3B cells, electroporation with 10,000 nM antisense oligonucleotide, approximately 24 hours, SMAD7 mRNA by RT-PCR (RTS5062), relative to untreated control cells

“800101 (antisense kA*kA*k[5mC]*dA*dA*dA*dG*d[5mC]*d[5mC]*dT*d[5mC]*dT*dT*k[5mC]*kT*k[5mC]) [compound 800101]” and “798829 (kG*kA*kT*dA*dT*d[5mC]*d[5mC]*dA*dG*dA*dG*dA*dG*kG*kG*k[5mC]; antisense) [compound 798829]” are the same in “% Inhibition” value: 0% for the first, 0% for the second.

Compared with “830026 (antisense kT*kT*kT*dT*dG*dT*dA*dA*dA*dT*d[5mC]*dG*dA*kA*kA*kG) [compound 830026]”, “799946 (antisense kT*k[5mC]*kA*dG*dA*dA*d[5mC]*dA*d[5mC]*dA*d[5mC]*dT*dT*kT*kG*kG) [compound 799946]” is higher in “% Inhibition” value: 0% for the first, 2% for the second.

First: 830014 (antisense kG*kG*kT*dG*d[5mC]*d[5mC]*dA*dG*dT*d[5mC]*dT*d[5mC]*dA*kA*kA*kT) [compound 830014]
Second: 830174 (antisense kG*kA*kG*dA*dG*dG*dT*dG*dT*dT*dT*d[5mC]*d[5mC]*kA*kA*kG) [compound 830174]
The “% Inhibition” value of the first is lower: 22% for the first, 49% for the second.

Going from “799940 (antisense k[5mC]*kT*kT*dT*dG*dA*dG*dG*dA*dG*d[5mC]*dA*dG*kG*kG*kT) [compound 799940]” to “800079 (antisense kT*kA*k[5mC]*d[5mC]*dT*dT*dA*dA*d[5mC]*dA*dA*dA*dG*k[5mC]*kT*kT) [compound 800079]”, the “% Inhibition” value rises from 50% to 61%.

Going from “830169 (antisense k[5mC]*kT*k[5mC]*dT*dG*dT*dT*dT*dG*dG*dA*d[5mC]*dA*kA*kG*kT) [compound 830169]” to “830151 (antisense kG*k[5mC]*k[5mC]*dA*dG*dT*dG*dG*dT*dG*dA*d[5mC]*d[5mC]*kT*k[5mC]*k[5mC]) [compound 830151]”, the “% Inhibition” value falls from 58% to 45%.

First: 799966 (antisense kG*kT*kG*dG*dA*dA*dG*dG*d[5mC]*dT*dG*dA*d[5mC]*k[5mC]*kT*kG) [compound 799966]
Second: 790460 (kA*kG*kG*dA*dG*d[5mC]*dG*dG*d[5mC]*dG*dG*d[5mC]*dG*kG*k[5mC]*k[5mC]; antisense) [compound 790460]
The “% Inhibition” value of the first is lower: 35% for the first, 58% for the second.

Same assay, conditions: Hep3B cells, electroporation with 10,000 nM antisense oligonucleotide, approximately 24 hours, primer probe set RTS5062, relative to untreated control cells

In the case of “798936 (antisense kG*k[5mC]*kA*dT*dG*dA*dA*dA*dA*dG*d[5mC]*dA*dA*kG*k[5mC]*kA) [compound 798936]”, the “% Inhibition” value is reported as 14%.

Compared with “799399 (antisense kT*k[5mC]*k[5mC]*dA*dA*dA*dT*dT*dT*dG*dA*dA*dG*kA*kA*kT) [compound 799399]”, “799147 (antisense kG*kT*kA*d[5mC]*d[5mC]*dT*dT*dG*dG*dG*dT*dT*dA*kT*kG*kA) [compound 799147]” is higher in “% inhibition of SMAD7 mRNA expression” value: 0% for the first, 28% for the second.

Compared with “798750 (antisense kA*kG*kG*dA*dG*dG*d[5mC]*dA*d[5mC]*dG*d[5mC]*dG*dG*kT*kG*k[5mC]) [compound 798750]”, “799129 (antisense k[5mC]*k[5mC]*kT*d[5mC]*d[5mC]*d[5mC]*dA*dG*dG*dG*dA*d[5mC]*dA*kT*k[5mC]*k[5mC]) [compound 799129]” is lower in “% inhibition of SMAD7 mRNA expression” value: 54% for the first, 37% for the second.

First: 799203 (antisense kG*kG*kT*dT*dT*dT*dT*dT*dT*dT*d[5mC]*dA*dG*kG*kA*kG) [compound 799203]
Second: 798689 (antisense kG*k[5mC]*k[5mC]*dG*dG*dA*d[5mC]*dG*dA*dG*d[5mC]*dG*d[5mC]*kA*kG*kA) [compound 798689]
The “% inhibition of SMAD7 mRNA expression” value of the first is higher: 56% for the first, 33% for the second.

Going from “798788 (kT*k[5mC]*kT*dG*dG*dA*dG*dT*dA*dA*dG*dG*dA*kG*kG*kG; antisense) [compound 798788]” to “799250 (antisense kT*kG*k[5mC]*dG*d[5mC]*dG*dG*d[5mC]*d[5mC]*dA*d[5mC]*dG*dA*k[5mC]*kA*kG) [compound 799250]”, the “% inhibition of SMAD7 mRNA expression” value falls from 31% to 21%.

Same assay, conditions: Hep3B cells, electroporation, 10,000 nM antisense oligonucleotide, approximately 24 hours, RTS5062, relative to untreated control cells

Going from “799716 (antisense kG*kG*k[5mC]*dT*dA*d[5mC]*d[5mC]*dA*dG*d[5mC]*d[5mC]*dT*dT*kG*k[5mC]*kT) [compound 799716]” to “799593 (kG*kA*kA*dG*dG*dA*dG*d[5mC]*dT*d[5mC]*dA*dA*dA*k[5mC]*kT*kT; antisense) [compound 799593]”, the “% inhibition of SMAD7 mRNA expression” value falls from 32% to 0%.

Compared with “799738 (antisense kT*k[5mC]*kA*dA*dA*dA*dA*dA*dT*dG*dT*d[5mC]*d[5mC]*k[5mC]*k[5mC]*kA) [compound 799738]”, “799599 (k[5mC]*k[5mC]*kA*dA*d[5mC]*dT*d[5mC]*dT*dG*dA*dA*d[5mC]*dG*kG*kA*kA; antisense) [compound 799599]” is lower in “% inhibition of SMAD7 mRNA expression” value: 50% for the first, 12% for the second.

Compared with “799678 (antisense k[5mC]*kA*k[5mC]*dA*dA*dG*d[5mC]*dA*d[5mC]*d[5mC]*dT*dG*dT*k[5mC]*k[5mC]*kA) [compound 799678]”, “772801 (kG*kA*k[5mC]*dA*dA*dA*d[5mC]*d[5mC]*dT*dT*d[5mC]*d[5mC]*dG*kA*kA*kA; antisense) [compound 772801]” is higher in “% inhibition of SMAD7 mRNA expression” value: 0% for the first, 34% for the second.

Same assay, conditions: SMAD7 mRNA, Hep3B cells, 10,000 nM antisense oligonucleotide, electroporation, approximately 24 hours, primer probe set RTS5062, relative to untreated control cells

Going from “829792 (k[5mC]*kT*kT*d[5mC]*d[5mC]*d[5mC]*dG*dT*dA*dA*dG*dA*dT*kT*k[5mC]*kA; antisense) [compound 829792]” to “801145 (antisense kA*k[5mC]*kG*d[5mC]*dT*dG*dT*dG*dG*dT*dT*dT*dG*kT*kG*kG) [compound 801145]”, the “% Inhibition” value falls from 39% to 0%.

Compared with “790519 (k[5mC]*kT*kG*dG*dA*dG*dT*d[5mC]*d[5mC]*dG*dG*dG*dT*kT*kG*kT; antisense) [compound 790519]”, “829757 (antisense k[5mC]*k[5mC]*kG*dG*d[5mC]*d[5mC]*d[5mC]*d[5mC]*dA*dT*dG*d[5mC]*dG*k[5mC]*kT*k[5mC]) [compound 829757]” is higher in “% Inhibition” value: 8% for the first, 15% for the second.

Going from “829765 (antisense kG*k[5mC]*k[5mC]*dG*d[5mC]*dT*d[5mC]*d[5mC]*dT*dT*d[5mC]*dA*dG*kT*kT*kT) [compound 829765]” to “829742 (antisense k[5mC]*kG*k[5mC]*d[5mC]*dG*dG*dA*d[5mC]*dG*dA*dG*d[5mC]*dG*k[5mC]*kA*kG) [compound 829742]”, the “% Inhibition” value rises from 28% to 43%.

Same assay, conditions: SMAD7 mRNA, Hep3B cells, electroporation with 10,000 nM antisense oligonucleotide, approximately 24 hours, primer probe set RTS5062, relative to untreated control cells

Going from “829847 (antisense kT*kG*kT*d[5mC]*d[5mC]*dG*dA*dA*dT*dT*dG*dA*dG*k[5mC]*kT*kG) [compound 829847]” to “829991 (kA*kG*kG*dG*d[5mC]*d[5mC]*dG*d[5mC]*dG*dA*dG*dG*d[5mC]*kG*kG*kT; antisense) [compound 829991]”, the “% Inhibition” value falls from 64% to 26%.

First: 829798 (kG*kG*kG*dT*dT*dG*dA*dT*d[5mC]*dT*dT*d[5mC]*d[5mC]*k[5mC]*kG*kT; antisense) [compound 829798]
Second: 829918 (antisense kG*kA*kG*dT*dG*dT*dA*dT*dG*dA*dG*dT*dT*kG*kT*kA) [compound 829918]
The “% Inhibition” value of the first is lower: 26% for the first, 53% for the second.

Compared with “829979 (kT*kG*kA*dT*dA*dT*dT*dT*dA*dG*d[5mC]*dT*dG*kT*k[5mC]*kA; antisense) [compound 829979]”, “829975 (k[5mC]*kA*kA*dA*dA*dG*dA*dG*dG*d[5mC]*d[5mC]*dG*d[5mC]*k[5mC]*kT*kG; antisense) [compound 829975]” is lower in “% Inhibition” value: 49% for the first, 32% for the second.

Going from “829868 (antisense kA*kG*kT*dG*dT*dG*dG*d[5mC]*dG*dG*dA*d[5mC]*dT*kT*kG*kA) [compound 829868]” to “830013 (antisense kG*kT*kG*d[5mC]*d[5mC]*dA*dG*dT*d[5mC]*dT*d[5mC]*dA*dA*kA*kT*kG) [compound 830013]”, the “% Inhibition” value rises from 52% to 55%.

In the case of “829807 (kA*kG*kA*d[5mC]*dT*d[5mC]*dT*dA*dG*dT*dT*d[5mC]*dG*k[5mC]*kA*kG; antisense) [compound 829807]”, the “% Inhibition” value is reported as 41%.
